Patent US20230189808A1, “SELECTIVE HERBICIDES BASED ON SUBSTITUTED ISOXAZOLIN CARBOXAMIDES AND FURILAZOLE” (Bayer Aktiengesellschaft, priority 2020, published 2023)

Tested on: ZEAMA Sileno
Experiment: Safener seed treatment with pre-emergence herbicide application, crop damage test in greenhouse
Type: in vivo, maize
Set-up: key to Reduction [Difference]: difference in % crop damage (visual score vs untreated control)
Conditions: for Reduction [%] / Reduction [Difference]: furilazole 0.25 g a.i./kg seed; for HER effect + SAF [%] / HER effect [%]: pre-emergence; for HER effect + SAF [%]: furilazole seed treatment 0.25 g a.i./kg seed; for HER effect [%]: % crop damage
Procedure: Seed Treatment; Pre-Emergence • A) Method Description
For the safener seed treatment, sufficient seeds of the respective crops (spring wheat, TRZAS; spring barley, HORVS; maize, ZEAMA) were weighed into screw top glass bottles approximately twice the volume of the seeds.
The specified safeners, formulated as wettable powder (WP) were weighed out so that the specified rates (g a·i·/kg seed) would be obtained, dissolved in water (1 ml water per 10 g of seeds), and added to the seeds to produce a slurry.
The bottles were capped and then placed in an overhead shaker (set at medium speed for ca. 60 minutes) so that the seeds were evenly coated with the slurry. The bottles were uncapped and the seeds were either placed on paper and dried for an interval of 3-4 hours prior to sowing, or directly sown. Seeds were placed in sandy loam soil in pots of a diameter of 7-8 cm, and covered with soil.
Pre-emergence application of the specified herbicides was done subsequently, on two sets of plants:
a) seed treatment with safener, as described above
The herbicides were formulated as WP and was sprayed onto the soil surface as an aqueous suspension at an equivalent water application rate of 300 1/ha.
After application, the test plants were kept in the greenhouse under good growth conditions. At intervals up to 4 weeks after application (=28 days after treatment; DAT), % crop damage observed on the treated plants was scored visually in comparison to control plants that had not received any safener or herbicide treatment.
Values in the table below are mean values of at least 2 replicates.
Plant Species, Variety: ZEAMA Sileno, Safener (SAF): Furilazole

[1] = herbicide alone 40 g a.i./ha, 14 DAT
[2] = herbicide alone 40 g a.i./ha, 26 DAT
[3] = herbicide alone 80 g a.i./ha, 14 DAT
[4] = herbicide alone 80 g a.i./ha, 26 DAT

SMILES | Reduction [%] (herbicide 40 g a.i./ha, 14 DAT) | Reduction [Difference] (herbicide 40 g a.i./ha, 14 DAT) | Reduction [%] (herbicide 40 g a.i./ha, 26 DAT) | Reduction [Difference] (herbicide 40 g a.i./ha, 26 DAT) | HER effect + SAF [%] (herbicide 40 g a.i./ha, 14 DAT) | HER effect + SAF [%] (herbicide 40 g a.i./ha, 26 DAT) | HER effect [%] [1] | HER effect [%] [2] | Reduction [%] (herbicide 80 g a.i./ha, 14 DAT) | Reduction [Difference] (herbicide 80 g a.i./ha, 14 DAT) | HER effect + SAF [%] (herbicide 80 g a.i./ha, 14 DAT) | HER effect [%] [3] | Reduction [%] (herbicide 80 g a.i./ha, 26 DAT) | Reduction [Difference] (herbicide 80 g a.i./ha, 26 DAT) | HER effect + SAF [%] (herbicide 80 g a.i./ha, 26 DAT) | HER effect [%] [4]
COC(=O)[C@H]1OCC[C@@H]1NC(=O)[C@@]1(C)CC(c2cc(F)cc(F)c2)=NO1 [Example 1.92] | 100% | 75 | 86% | 60 | 0% | 10% | 75% | 70% |  |  |  |  |  |  |  | 
COCCOC(=O)C1C=CC(NC(=O)C2(C(F)(F)F)CC(c3cc(F)cc(C#N)c3)=NO2)C1 (stereo not shown) [Example 1.2] | 63% | 25 |  |  | 15% |  | 40% |  | 100% | 45 | 0% | 45% |  |  |  | 
COC(=O)C1=C[C@@H](NC(=O)[C@@]2(C)CC(c3cc(F)cc(F)c3)=NO2)CC1 [Example 1.63] | 50% | 30 | 100% | 25 | 30% | 0% | 60% | 25% |  |  |  |  |  |  |  | 
C=CC1(C(=O)NC2COC(C(=O)OC)C2)CC(c2cc(F)cc(F)c2)=NO1 (stereo not shown) [Example 1.70] | 44% | 35 | 24% | 20 | 45% | 65% | 80% | 85% | 58% | 55 | 40% | 95% | 63% | 60 | 35% | 95%
C=CC1(C(=O)NC2COC(C(=O)OC)C2)CC(c2cc(F)cc(F)c2)=NO1 (stereo not shown) [Example 1.69] | 37% | 35 |  |  | 60% |  | 95% |  |  |  |  |  |  |  |  | 
COCCOC(=O)C1C=CC(NC(=O)C2(C)CC(c3cc(Cl)cc(C#N)c3)=NO2)C1 (stereo not shown) [Example 1.5] |  |  |  |  |  |  |  |  | 33% | 20 | 40% | 60% | 67% | 30 | 15% | 45%
